According to patent US20240024488A1, “COMPOUNDS AND USES THEREOF” (Foghorn Therapeutics Inc., priority 2020, published 2024):

What was measured:
[1] = biological target: T1, HiBit-BRG1 fusion protein (Homo sapiens, UniProt P51532); experiment: HiBiT-BRG1 cell-based degradation assay (Nano-Glo HiBiT Lytic Detection, 24 h); settings: HeLa cell line expressing HiBit-BRG1 and LgBit; for Dmax: read-out: BRG1 HiBit Degradation Maximum (%); for DC50: read-out: BRMG1 HiBit Degradation IC50
T1 construct: expressed in transfected cells
Outline: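 Luminescence from Nano-Glo HiBiT lytic detection, read after 24 h compound exposure, scored degradation in a stable HeLa HiBiT-BRG1/LgBit line seeded at 5000 cells/well. DMSO wells defined 0% and 2 μM known BRM/BRG1 degrader wells defined full degradation.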

HiBit-BRM fusion protein = biological target: T2, HiBit-BRM fusion protein (Homo sapiens, UniProt P51531); experiment: HiBiT-BRM cell-based degradation assay (Nano-Glo HiBiT Lytic Detection, 24 h); settings: HeLa cell line expressing HiBiT-BRM; for DC50: read-out: BRM HiBit Degradation IC50
T2 construct: expressed in transfected cells
Outline: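 Luminescence from reconstituted NanoBiT luciferase in lysed HeLa HiBiT-BRM cells served as the measure of remaining BRM after 24 h treatment. Compounds were tested from 30 μM final downward in 3-fold steps. DMSO and 2 μM of a standard BRM/BRG1 degrader defined the scale limits.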

T2 sequence (P51531 whole entry, the tested form may be a part): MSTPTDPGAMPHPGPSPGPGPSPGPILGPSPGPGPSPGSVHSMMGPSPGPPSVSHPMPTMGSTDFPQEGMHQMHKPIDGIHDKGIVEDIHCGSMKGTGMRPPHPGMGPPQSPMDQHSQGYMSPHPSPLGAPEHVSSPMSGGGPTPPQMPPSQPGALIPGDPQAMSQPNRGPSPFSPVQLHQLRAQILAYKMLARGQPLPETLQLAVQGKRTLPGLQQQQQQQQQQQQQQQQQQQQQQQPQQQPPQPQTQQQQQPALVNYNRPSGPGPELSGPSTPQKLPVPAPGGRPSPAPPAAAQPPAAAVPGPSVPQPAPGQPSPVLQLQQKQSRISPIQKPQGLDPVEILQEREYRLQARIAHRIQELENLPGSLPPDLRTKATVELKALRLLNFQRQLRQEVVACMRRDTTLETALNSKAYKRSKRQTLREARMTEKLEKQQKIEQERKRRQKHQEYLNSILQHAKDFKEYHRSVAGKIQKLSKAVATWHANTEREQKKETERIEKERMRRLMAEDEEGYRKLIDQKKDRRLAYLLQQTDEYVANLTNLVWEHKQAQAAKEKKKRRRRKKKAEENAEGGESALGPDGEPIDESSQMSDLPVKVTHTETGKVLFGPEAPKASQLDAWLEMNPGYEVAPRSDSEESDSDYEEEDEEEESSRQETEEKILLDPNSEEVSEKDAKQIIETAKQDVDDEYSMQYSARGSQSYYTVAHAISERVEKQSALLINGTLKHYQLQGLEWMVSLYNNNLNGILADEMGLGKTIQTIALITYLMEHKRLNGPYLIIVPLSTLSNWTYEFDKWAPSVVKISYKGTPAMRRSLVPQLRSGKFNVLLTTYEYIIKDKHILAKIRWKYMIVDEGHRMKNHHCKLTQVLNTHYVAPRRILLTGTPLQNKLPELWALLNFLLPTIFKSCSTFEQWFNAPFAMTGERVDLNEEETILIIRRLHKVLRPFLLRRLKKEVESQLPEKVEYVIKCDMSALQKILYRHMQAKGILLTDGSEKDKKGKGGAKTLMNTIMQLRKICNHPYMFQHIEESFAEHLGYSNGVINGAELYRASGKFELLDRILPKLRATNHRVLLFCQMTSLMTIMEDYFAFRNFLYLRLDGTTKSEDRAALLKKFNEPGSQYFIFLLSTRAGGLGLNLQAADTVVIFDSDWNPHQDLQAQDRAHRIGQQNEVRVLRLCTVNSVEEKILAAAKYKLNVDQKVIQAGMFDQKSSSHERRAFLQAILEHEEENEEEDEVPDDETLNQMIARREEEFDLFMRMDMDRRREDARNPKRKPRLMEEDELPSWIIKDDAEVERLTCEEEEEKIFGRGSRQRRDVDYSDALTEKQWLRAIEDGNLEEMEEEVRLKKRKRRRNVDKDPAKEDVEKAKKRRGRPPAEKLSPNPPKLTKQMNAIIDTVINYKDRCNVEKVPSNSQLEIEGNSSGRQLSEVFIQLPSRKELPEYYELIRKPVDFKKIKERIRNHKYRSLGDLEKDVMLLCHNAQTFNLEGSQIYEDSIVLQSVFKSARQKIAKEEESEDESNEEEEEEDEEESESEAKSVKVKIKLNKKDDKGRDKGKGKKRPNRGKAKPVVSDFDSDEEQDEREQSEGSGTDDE
T1 sequence (P51532 whole entry, the tested form may be a part): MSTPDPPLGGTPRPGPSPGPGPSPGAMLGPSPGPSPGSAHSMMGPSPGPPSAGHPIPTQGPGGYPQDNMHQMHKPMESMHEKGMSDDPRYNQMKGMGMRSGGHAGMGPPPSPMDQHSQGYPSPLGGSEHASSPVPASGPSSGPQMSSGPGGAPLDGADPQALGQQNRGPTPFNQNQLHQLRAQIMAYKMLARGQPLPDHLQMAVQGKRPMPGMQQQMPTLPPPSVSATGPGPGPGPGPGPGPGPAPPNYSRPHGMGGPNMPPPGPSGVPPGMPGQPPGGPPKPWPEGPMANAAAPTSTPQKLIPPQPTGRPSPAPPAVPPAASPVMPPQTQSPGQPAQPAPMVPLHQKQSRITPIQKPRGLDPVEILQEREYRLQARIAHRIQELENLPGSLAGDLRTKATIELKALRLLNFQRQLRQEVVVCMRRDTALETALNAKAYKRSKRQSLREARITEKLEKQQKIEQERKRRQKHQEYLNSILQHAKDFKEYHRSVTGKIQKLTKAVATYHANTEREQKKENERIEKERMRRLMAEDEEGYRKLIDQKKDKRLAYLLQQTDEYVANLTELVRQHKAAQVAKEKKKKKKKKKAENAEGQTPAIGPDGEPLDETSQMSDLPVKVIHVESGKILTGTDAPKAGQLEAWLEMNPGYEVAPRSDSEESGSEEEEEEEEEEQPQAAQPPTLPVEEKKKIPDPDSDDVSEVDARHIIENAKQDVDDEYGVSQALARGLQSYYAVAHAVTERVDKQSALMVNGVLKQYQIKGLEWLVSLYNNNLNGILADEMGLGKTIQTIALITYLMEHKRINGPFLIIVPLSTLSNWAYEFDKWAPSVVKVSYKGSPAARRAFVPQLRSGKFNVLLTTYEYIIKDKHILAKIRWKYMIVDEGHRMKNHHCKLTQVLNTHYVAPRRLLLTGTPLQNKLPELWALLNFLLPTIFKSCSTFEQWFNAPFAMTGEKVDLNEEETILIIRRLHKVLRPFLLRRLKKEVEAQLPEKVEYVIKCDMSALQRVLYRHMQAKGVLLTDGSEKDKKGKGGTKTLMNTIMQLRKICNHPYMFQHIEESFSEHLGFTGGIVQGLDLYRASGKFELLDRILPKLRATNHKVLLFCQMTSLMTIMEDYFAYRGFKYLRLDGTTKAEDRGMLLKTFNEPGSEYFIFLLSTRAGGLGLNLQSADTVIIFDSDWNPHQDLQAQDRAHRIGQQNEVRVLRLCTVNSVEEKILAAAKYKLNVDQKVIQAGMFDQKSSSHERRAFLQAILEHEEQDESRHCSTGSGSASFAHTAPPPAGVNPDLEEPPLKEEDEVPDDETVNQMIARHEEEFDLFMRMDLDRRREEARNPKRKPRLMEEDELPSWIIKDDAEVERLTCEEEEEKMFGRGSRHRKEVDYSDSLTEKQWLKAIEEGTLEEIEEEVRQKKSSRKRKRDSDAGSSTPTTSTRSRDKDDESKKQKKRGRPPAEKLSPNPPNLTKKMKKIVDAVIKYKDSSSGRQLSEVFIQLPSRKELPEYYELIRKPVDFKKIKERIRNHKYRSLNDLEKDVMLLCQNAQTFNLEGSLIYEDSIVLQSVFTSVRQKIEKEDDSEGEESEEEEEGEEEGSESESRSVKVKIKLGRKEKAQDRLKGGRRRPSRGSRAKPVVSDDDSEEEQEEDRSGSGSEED

Dmax [1] [%]	DC50 (HiBit-BRM fusion protein) [nM]	DC50 [1] [nM]	SMILES	BRM HiBit Degradation Maximum (%) (HiBit-BRM fusion protein)
< 50	> 10	–	Cc1ncsc1-c1ccc([C@H](C)NC(=O)[C@@H]2C[C@@H](O)CN2C(=O)[C@@H](c2cc(N3CCN(C(=O)[C@H]4C[C@@]5(Cc6cc(-c7ccccc7O)nnc6N5)C4)CC3)no2)C(C)C)cc1 (racemic) [Compound 80, (2S,4R)-4-hydroxy-1-((R)-2-(3-(4-((1R,3s)-3′-(2-hydroxyphenyl)-5′,7′-dihydrospiro[cyclobutane-1,6′-pyrrolo[2,3-c]pyridazine]-3-carbonyl)piperazin-1-yl)isoxazol-5-yl)-3-methylbutanoyl)-N-((S)-1-(4-(4-methylthiazol-5-yl)phenyl)ethyl)pyrrolidine-2-carboxamide]	A (“A” indicates maximum degradation ≥ 75%)
> 75	> 10	> 100	Cc1ncsc1-c1ccc([C@H](C)NC(=O)[C@@H]2C[C@@H](O)CN2C(=O)[C@@H](c2cc(N3CCC(CN4CCc5[nH]c6nnc(-c7ccccc7O)cc6c5[C@H]4C)CC3)no2)C(C)C)cc1 (racemic) [Compound 81, (2S,4R)-4-hydroxy-1-[(2R)-2-[3-(4-{[(3R)-12-(2-hydroxyphenyl)-3-methyl-4,8,10,11-tetraazatricyclo[7.4.0.0^{2,7}]trideca-1(13),2(7),9,11-tetraen-4-yl]methyl}piperidin-1-yl)-1,2-oxazol-5-yl]-3-methylbutanoyl]-N-[(1S)-1-[4-(4-methyl-1,3-thiazol-5-yl)phenyl]ethyl]pyrrolidine-2-carboxamide]	A (“A” indicates maximum degradation ≥ 75%)
> 75	< 10	> 100	Cc1ncsc1-c1ccc([C@H](C)NC(=O)[C@@H]2C[C@@H](O)CN2C(=O)[C@@H](c2cc(N3CCC(C(=O)N4CCc5[nH]c6nnc(-c7ccccc7O)cc6c5[C@H]4C)CC3)no2)C(C)C)cc1 (racemic) [Compound 82, (2S,4R)-4-hydroxy-1-((R)-2-(3-(4-((R)-3-(2-hydroxyphenyl)-5-methyl-6,7,8,9-tetrahydro-5H-pyrido[3′,4′:4,5]pyrrolo[2,3-c]pyridazine-6-carbonyl)piperidin-1-yl)isoxazol-5-yl)-3-methylbutanoyl)-N-((S)-1-(4-(4-methylthiazol-5-yl)phenyl)ethyl)pyrrolidine-2-carboxamide]	A (“A” indicates maximum degradation ≥ 75%)
> 75	> 10	> 10	Cc1ncsc1-c1ccc([C@H](C)NC(=O)[C@@H]2C[C@@H](O)CN2C(=O)[C@@H](c2cc(N3CCC(CN4CCc5[nH]c6nnc(-c7ccccc7O)cc6c5[C@@H]4C)CC3)no2)C(C)C)cc1 (racemic) [Compound 83, (2S,4R)-4-hydroxy-1-[(2R)-2-[3-(4-{[(3S)-12-(2-hydroxyphenyl)-3-methyl-4,8,10,11-tetraazatricyclo[7.4.0.0^{2,7}]trideca-1(13),2(7),9,11-tetraen-4-yl]methyl}piperidin-1-yl)-1,2-oxazol-5-yl]-3-methylbutanoyl]-N-[(1S)-1-[4-(4-methyl-1,3-thiazol-5-yl)phenyl]ethyl]pyrrolidine-2-carboxamide]	A (“A” indicates maximum degradation ≥ 75%)
< 50	–	–	Cc1ncsc1-c1ccc([C@H](C)NC(=O)[C@@H]2C[C@@H](O)CN2C(=O)[C@@H](c2cc(OCCCN3CC4(Cc5cc(-c6ccccc6O)nnc5N4)C3)no2)C(C)C)cc1 (racemic) [Compound 84, (2S,4R)-4-hydroxy-1-((R)-2-(3-(3-(3′-(2-hydroxyphenyl)-5′,7′-dihydrospiro[azetidine-3,6′-pyrrolo[2,3-c]pyridazin]-1-yl)propoxy)isoxazol-5-yl)-3-methylbutanoyl)-N-((S)-1-(4-(4-methylthiazol-5-yl)phenyl)ethyl)pyrrolidine-2-carboxamide]	C (“C” indicates maximum degradation < 50%)
< 50	> 100	–	Cc1ncsc1-c1ccc([C@H](C)NC(=O)[C@@H]2C[C@@H](O)CN2C(=O)[C@@H](c2cc(N3CCC(C(=O)N4CCc5[nH]c6nnc(-c7ccccc7O)cc6c5[C@@H]4C)CC3)no2)C(C)C)cc1 (racemic) [Compound 86, (2S,4R)-4-hydroxy-1-((R)-2-(3-(4-((S)-3-(2-hydroxyphenyl)-5-methyl-6,7,8,9-tetrahydro-5H-pyrido[3′,4′:4,5]pyrrolo[2,3-c]pyridazine-6-carbonyl)piperidin-1-yl)isoxazol-5-yl)-3-methylbutanoyl)-N-((S)-1-(4-(4-methylthiazol-5-yl)phenyl)ethyl)pyrrolidine-2-carboxamide]	A (“A” indicates maximum degradation ≥ 75%)
< 50	–	–	Cc1ncsc1-c1ccc([C@H](C)NC(=O)[C@@H]2C[C@@H](O)CN2C(=O)[C@@H](c2cc(N(C)CCN3CC4(Cc5cc(-c6ccccc6O)nnc5N4)C3)no2)C(C)C)cc1 (racemic) [Compound 87, (2S,4R)-4-hydroxy-1-((R)-2-(3-((2-(3′-(2-hydroxyphenyl)-5′,7′-dihydrospiro[azetidine-3,6′-pyrrolo[2,3-c]pyridazin]-1-yl)ethyl)(methyl)amino)isoxazol-5-yl)-3-methylbutanoyl)-N-((S)-1-(4-(4-methylthiazol-5-yl)phenyl)ethyl)pyrrolidine-2-carboxamide]	C (“C” indicates maximum degradation < 50%)
> 75	> 10	> 100	Cc1ncsc1-c1ccc(CNC(=O)[C@@H]2C[C@@H](O)CN2C(=O)[C@@H](NC(=O)[C@H]2CC[C@H](c3cnc(N4CCC(c5cc6cc(-c7ccccc7O)nnc6[nH]5)CC4)nc3)CC2)C(C)(C)C)cc1 (racemic) [Compound 93, (2S,4R)-4-hydroxy-1-((S)-2-((1r,4S)-4-(2-(4-(3-(2-hydroxyphenyl)-7H-pyrrolo[2,3-c]pyridazin-6-yl)piperidin-1-yl)pyrimidin-5-yl)cyclohexane-1-carboxamido)-3,3-dimethylbutanoyl)-N-(4-(4-methylthiazol-5-yl)benzyl)pyrrolidine-2-carboxamide]	A (“A” indicates maximum degradation ≥ 75%)
< 50	> 10	–	Cc1ncsc1-c1ccc(CNC(=O)[C@@H]2C[C@@H](O)CN2C(=O)[C@@H](NC(=O)[C@H]2CC[C@@H](c3cnc(N4CCC(c5cc6cc(-c7ccccc7O)nnc6[nH]5)CC4)nc3)CC2)C(C)(C)C)cc1 (racemic) [Compound 94, (2S,4R)-4-hydroxy-1-((S)-2-((1s,4R)-4-(2-(4-(3-(2-hydroxyphenyl)-7H-pyrrolo[2,3-c]pyridazin-6-yl)piperidin-1-yl)pyrimidin-5-yl)cyclohexane-1-carboxamido)-3,3-dimethylbutanoyl)-N-(4-(4-methylthiazol-5-yl)benzyl)pyrrolidine-2-carboxamide]	A (“A” indicates maximum degradation ≥ 75%)
< 50	> 1000	–	Cc1ncsc1-c1ccc([C@H](C)NC(=O)[C@@H]2C[C@@H](O)CN2C(=O)[C@@H](c2cc(OCC(=O)N3CC4(Cc5cc(-c6ccccc6O)nnc5N4)C3)no2)C(C)C)cc1 (racemic) [Compound 95, (2S,4R)-4-hydroxy-1-((R)-2-(3-(2-(3′-(2-hydroxyphenyl)-5′,7′-dihydrospiro[azetidine-3,6′-pyrrolo[2,3-c]pyridazin]-1-yl)-2-oxoethoxy)isoxazol-5-yl)-3-methylbutanoyl)-N-((S)-1-(4-(4-methylthiazol-5-yl)phenyl)ethyl)pyrrolidine-2-carboxamide]	B (“B” indicates maximum degradation ≥ 50%)
> 50	> 10	> 100	Cc1ncsc1-c1ccc([C@H](C)NC(=O)[C@@H]2C[C@@H](O)CN2C(=O)[C@@H](c2cc(N3CCC(CN4CC5(Cc6cc(-c7ccccc7O)nnc6N5)C4)CC3)no2)C(C)C)cc1 (racemic) [Compound 96, (2S,4R)-4-hydroxy-1-((R)-2-(3-(4-((3′-(2-hydroxyphenyl)-5′,7′-dihydrospiro[azetidine-3,6′-pyrrolo[2,3-c]pyridazin]-1-yl)methyl)piperidin-1-yl)isoxazol-5-yl)-3-methylbutanoyl)-N-((S)-1-(4-(4-methylthiazol-5-yl)phenyl)ethyl)pyrrolidine-2-carboxamide]	A (“A” indicates maximum degradation ≥ 75%)
< 50	> 100	–	Cc1ncsc1-c1ccc([C@H](C)NC(=O)[C@@H]2C[C@@H](O)CN2C(=O)[C@@H](c2cc(N3CCC(C(=O)N4CC5(Cc6cc(-c7ccccc7O)nnc6N5)C4)CC3)no2)C(C)C)cc1 (racemic) [Compound 97, (2S,4R)-4-hydroxy-1-((R)-2-(3-(4-(3′-(2-hydroxyphenyl)-5′,7′-dihydrospiro[azetidine-3,6′-pyrrolo[2,3-c]pyridazine]-1-carbonyl)piperidin-1-yl)isoxazol-5-yl)-3-methylbutanoyl)-N-((S)-1-(4-(4-methylthiazol-5-yl)phenyl)ethyl)pyrrolidine-2-carboxamide]	A (“A” indicates maximum degradation ≥ 75%)
